pIC50: −log10 of the molar value. Active and inactive are the calls of the source. The rule behind the calls is not given here.
Key:
Acetylcholinesterase = target: T1, Acetylcholinesterase (Rattus norvegicus, UniProt P37136)
T1 sequence (P37136 whole entry): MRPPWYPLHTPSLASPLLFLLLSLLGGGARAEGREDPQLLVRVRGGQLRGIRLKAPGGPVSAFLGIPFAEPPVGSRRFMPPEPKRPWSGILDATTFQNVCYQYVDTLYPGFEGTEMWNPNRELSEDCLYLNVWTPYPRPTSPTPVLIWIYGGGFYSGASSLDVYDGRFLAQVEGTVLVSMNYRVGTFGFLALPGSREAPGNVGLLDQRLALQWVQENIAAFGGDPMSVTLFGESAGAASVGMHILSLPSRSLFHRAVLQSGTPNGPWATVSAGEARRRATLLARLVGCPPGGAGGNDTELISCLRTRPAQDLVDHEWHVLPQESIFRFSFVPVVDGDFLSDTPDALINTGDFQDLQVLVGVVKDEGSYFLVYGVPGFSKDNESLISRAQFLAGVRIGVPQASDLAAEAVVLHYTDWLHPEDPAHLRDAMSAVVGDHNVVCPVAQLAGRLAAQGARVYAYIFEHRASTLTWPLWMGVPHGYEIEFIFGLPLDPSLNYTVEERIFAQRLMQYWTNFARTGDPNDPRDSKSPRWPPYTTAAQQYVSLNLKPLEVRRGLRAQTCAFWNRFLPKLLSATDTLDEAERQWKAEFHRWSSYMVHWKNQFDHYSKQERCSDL
Description: Inhibition of acetylcholinesterase

Mus musculus [1] = experiment: Compound was evaluated for reversal of scopolamine-induced memory impairment in mice when administered subcutaneously (0.31 - 5 mg/kg); format: functional; settings: route subcutaneous
[2] = Acute toxicity in mice when administered subcutaneously; settings: mouse, in vivo, sc
Mus musculus [3] = experiment: Compound was evaluated for reversal of scopolamine-induced memory impairment in mice when administered subcutaneously (1-10 mg/kg); format: functional
Mus musculus [4] = experiment: Compound was evaluated for reversal of scopolamine-induced memory impairment in mice when administered subcutaneously; Not active (0.16-5 mg/kg); format: functional
Mus musculus [5] = experiment: Compound was evaluated for reversal of scopolamine-induced memory impairment in mice when administered subcutaneously; Not active (1-10 mg/kg); format: functional
Mus musculus [6] = experiment: Compound was evaluated for reversal of scopolamine-induced memory impairment in mice when administered subcutaneously; format: functional

Nc1c2c(nc3ccccc13)CC[C@H](O)[C@H]2O
pIC50 (Acetylcholinesterase): < 4.00

Nc1c2c(nc3ccccc13)CCCC2O (centres undefined) [VELNACRINE]
Dose (Mus musculus [1]): 0.31 mg/kg
LD50 [2]: > 80 mg/kg
pIC50 (Acetylcholinesterase): 5.89

Nc1c2c(nc3ccccc13)C[C@H](O)C[C@H]2O
Dose (Mus musculus [3]): 1 mg/kg
LD50 [2]: > 80 mg/kg
pIC50 (Acetylcholinesterase): 4.83

Nc1c2c(nc3ccc(O)cc13)CCCC2O (centres undefined)
Dose (Mus musculus [4]): 0.16 mg/kg
LD50 [2]: > 80 mg/kg
pIC50 (Acetylcholinesterase): 4.97

Nc1c2c(nc3ccccc13)C[C@H](O)C[C@@H]2O
Dose (Mus musculus [3]): 1 mg/kg
LD50 [2]: > 80 mg/kg
pIC50 (Acetylcholinesterase): 5.27

Nc1c2c(nc3cc(O)ccc13)CCCC2O (centres undefined)
Dose (Mus musculus [4]): 0.16 mg/kg
LD50 [2]: > 80 mg/kg
pIC50 (Acetylcholinesterase): 4.19

Nc1c2c(nc3ccccc13)[C@H](O)CC[C@H]2O
DOSE (Mus musculus [5]): inactive
LD50 [2]: > 80 mg/kg
pIC50 (Acetylcholinesterase): 4.21

Nc1c2c(nc3cccc(O)c13)CCCC2O (centres undefined)
Dose (Mus musculus [5]): 1 mg/kg
LD50 [2]: > 80 mg/kg
pIC50 (Acetylcholinesterase): 4.56

Nc1c2c(nc3ccccc13)CC[C@H](O)[C@@H]2O
pIC50 (Acetylcholinesterase): < 4.00

Nc1c2c(nc3c(O)cccc13)CCCC2O (centres undefined)
Dose (Mus musculus [5]): 1 mg/kg
LD50 [2]: > 80 mg/kg
pIC50 (Acetylcholinesterase): 4.60

Nc1c2c(nc3ccccc13)[C@H](O)CC[C@@H]2O
Dose (Mus musculus [6]): 3 mg/kg
LD50 [2]: > 80 mg/kg
pIC50 (Acetylcholinesterase): 5.34

From ChEMBL document CHEMBL1126448, “Synthesis and biological activity of putative mono-hydroxylated metabolites of velnacrine” (Bioorg Med Chem Lett, 1992)
